Test results from US20080063660A1, “Method to reduce the physiologic effects of drugs on mammals” (Anarco, Inc., priority 1993, published 2008).
Counter-ions that a name gives are not always drawn.

Tests used:
[1] = stated in brackets beside the i.v. challenge dose; cited from earlier work
[2] = tested on: rabbits; experiment: intravenous cocaine-HCl challenge of rabbits immunized with COALB
Description: Rabbits were immunized with COALB by subcutaneous injection of 100 μg of the benzoylecgonine-conjugated immunogen every two weeks for a period of two months (four injections). Freund's complete adjuvant was used in the first injection and Freund's incomplete adjuvant was utilized for subsequent injections.

Q: Which results are given for `COC(=O)[C@H]1[C@@H](OC(=O)c2ccccc2)C[C@@H]2CC[C@H]1N2C` [cocaine-HCl]?
A: LD50 [1]: 12 mg/kg; physiologic/toxic effects of cocaine in control (un-immunized) rabbits ([2]; cocaine-HCl 2 mg/kg i.v. in sterile saline): marked grande maul convulsions; time to recovery of control rabbits after cocaine ([2]; cocaine-HCl 2 mg/kg i.v., un-immunized rabbits): 10 to 15 min
